This assay concerns Colon cancer cells (Colo205 cell line). Description: Colo205 cell proliferation assay (MTT assay, WST-8 readout). Type of assay: cell-based. Conditions: Homo sapiens, COLO 205, 72 hours incubation, absorbance at 450 nm, read-out: Colo 205 cell growth inhibition IC50. Here is the method: Compounds disclosed herein were tested for the inhibition of ERK2 by a Colo205 cell proliferation assay commonly known as MTT assay. In this assay, a complete media was prepared by adding 10% fetal bovine serum to RPMI-1640 medium (Life technology). Colon cancer cells (Colo205 cell line) were added to each of 88 wells of a 96 well plate at a seeding density of 5,000 cells/well/90 μL. The cells were allowed to attach to the plate by incubating at 37° C. for 24 hours. The compound was dissolved in DMSO (SIGMA). A solution of test compound was prepared in complete media by serial dilution to obtain the following concentrations: 500 μM, 150 μM, 50 μM, 15 μM, 5 μM, 1.5 μM, 0.5 μM, 0.15 μM and 0.05 μM. The test compound solution (10 μL) was added to each of 80 cell-containing wells. The final concentrations of the compound were following: 50 μM, 15 μM, 5 μM, 1.5 μM, 0.5 μM, 0.15 μM, 0.05 μM, 0.015 μM and 0.005 μM. The final concentration of DMSO is 0.5%. To the 8 remaining cell-containing wells, only complete media (containing 0.5% DMSO) was added to form a control group in order to measure maximal proliferation. To the remaining 8 empty wells, complete media was added to for a vehicle control group in order to measure background. The plates were incubated at 37° C. for 72 hours. 10 μL WST-8 solution (DOJINDO, Cell Counting KIT-8) was added to each well. The plates were further incubated at 37° C. for 2 hours, and then read for the absorbance using a microplate reader at 450 nm.
Background: Tetrazolium dyes change colour on reduction, which living cells bring about.

Data on 26 molecules can be found in US10696687B2, “Pyrazolo fused heterocyclic compounds as ERK inhibitors” (CHANGZHOU JIEKAI PHARMATECH CO., LTD., priority 2015, dated 2020).

pIC50: −log10 of the molar value.

As to `Cc1cc(-c2n[nH]c3ncc(C(=O)N[C@@H]4CN(C)C[C@H]4c4ccccc4C(F)(F)F)cc23)ccn1` (racemic) [Compound 3, trans-N-(1-methyl-4-(2-(trifluoromethyl)phenyl)pyrrolidin-3-yl)-3-(2-methylpyridin-4-yl)-1H-pyrazolo[3,4-b]pyridine-5-carboxamide], the pIC50 is 5.00 to 7.28.
In the case of `CN1C[C@H](NC(=O)c2cnc3[nH]nc(N4CCOCC4)c3c2)[C@@H](c2ccccc2C(F)(F)F)C1` (relative stereo) [Compound 9, trans-N-(1-methyl-4-(2-(trifluoromethyl)phenyl)pyrrolidin-3-yl)-3-morpholino-1H-pyrazolo[3,4-b]pyridine-5-carboxamide] it was 5.00 to 7.28.
As to `Cc1cc(-c2n[nH]c3ncc(C(=O)N[C@H]4CN(C)C[C@@H]4c4cccc(Cl)c4)cc23)ccn1` (relative stereo) [Compound 10, trans-N-(4-(3-chlorophenyl)-1-methylpyrrolidin-3-yl)-3-(2-methylpyridin-4-yl)-1H-pyrazolo[3,4-b]pyridine-5-carboxamide], the pIC50 was 5.00 to 7.28.
In the case of `COc1cc(-c2n[nH]c3ncc(C(=O)N[C@H]4CN(C)C[C@@H]4c4ccccc4C(F)(F)F)cc23)ccn1` (relative stereo) [Compound 13, trans-3-(2-methoxypyridin-4-yl)-N-(1-methyl-4-(2-(trifluoromethyl)phenyl)pyrrolidin-3-yl)-1H-pyrazolo[3,4-b]pyridine-5-carboxamide] it was 5.00 to 7.28; in that of `Cc1cc(-c2n[nH]c3ncc(C(=O)N[C@H]4CN(C)C[C@@H]4c4ccccc4F)cc23)ccn1` (relative stereo) [Compound 16, trans-N-(-4-(2-fluorophenyl)-1-methylpyrrolidin-3-yl)-3-(2-methylpyridin-4-yl)-1H-pyrazolo[3,4-b]pyridine-5-carboxamide], 5.00 to 7.28.
On to `COc1ncc(-c2n[nH]c3ncc(C(=O)N[C@H]4CN(C)C[C@@H]4c4ccccc4C(F)(F)F)cc23)cn1` (relative stereo) [Compound 17, trans-3-(2-methoxypyrimidin-5-yl)-N-(-1-methyl-4-(2-(trifluoromethyl)phenyl)pyrrolidin-3-yl)-1H-pyrazolo[3,4-b]pyridine-5-carboxamide], for which the pIC50 is 5.00 to 7.28.
In the case of `Cc1cc(-c2n[nH]c3ccc(C(=O)N[C@H]4CN(C)C[C@@H]4c4ccccc4F)cc23)ccn1` (relative stereo) [Compound 23, trans-N-(-4-(2-fluorophenyl)-1-methylpyrrolidin-3-yl)-3-(2-methylpyridin-4-yl)-1H-indazole-5-carboxamide] it was 5.00 to 7.28.
Regarding `Cc1cc(-c2n[nH]c3ncc(C(=O)N[C@H]4CN(C)C[C@@H]4c4ccc(F)cc4)cc23)ccn1` (relative stereo) [Compound 24, trans-N-(-4-(4-fluorophenyl)-1-methylpyrrolidin-3-yl)-3-(2-methylpyridin-4-yl)-1H-pyrazolo[3,4-b]pyridine-5-carboxamide], the negative logarithm of the IC50 (pIC50) was 5.00 to 7.28.
As for `Cc1cc(-c2n[nH]c3ncc(C(=O)N[C@H]4CN(C)C[C@@H]4c4ccc(F)cc4F)cc23)ccn1` (relative stereo) [Compound 25, trans-N-(-4-(2,4-difluorophenyl)-1-methylpyrrolidin-3-yl)-3-(2-methylpyridin-4-yl)-1H-pyrazolo[3,4-b]pyridine-5-carboxamide], the negative logarithm of the IC50 (pIC50) was 5.00 to 7.28.
For the molecule `CCN1C[C@H](NC(=O)c2cnc3[nH]nc(-c4ccnc(C)c4)c3c2)[C@@H](c2ccccc2C(F)(F)F)C1` (relative stereo) [Compound 26, trans-N-(-1-ethyl-4-(2-(trifluoromethyl)phenyl)pyrrolidin-3-yl)-3-(2-methylpyridin-4-yl)-1H-pyrazolo[3,4-b]pyridine-5-carboxamide], the pIC50 was 5.00 to 7.28.
Turning to `Cc1cc(-c2n[nH]c3ncc(C(=O)N[C@H]4CN(C)C[C@@H]4c4ccc(F)cc4Cl)cc23)ccn1` (relative stereo) [Compound 28, trans-N-(-4-(2-chloro-4-fluorophenyl)-1-methylpyrrolidin-3-yl)-3-(2-methylpyridin-4-yl)-1H-pyrazolo[3,4-b]pyridine-5-carboxamide], the pIC50 is 5.00 to 7.28.
In the case of `CCCN1C[C@H](NC(=O)c2cnc3[nH]nc(-c4ccnc(C)c4)c3c2)[C@@H](c2ccccc2C(F)(F)F)C1` (relative stereo) [Compound 29, trans-3-(2-methylpyridin-4-yl)-N-(-1-propyl-4-(2-(trifluoromethyl)phenyl)pyrrolidin-3-yl)-1H-pyrazolo[3,4-b]pyridine-5-carboxamide], the negative logarithm of the IC50 (pIC50) is 5.00 to 7.28.
In the case of `Cc1cc(-c2n[nH]c3ccc(C(=O)N[C@@H]4CN(C)C[C@H]4c4ccccc4Cl)cc23)ccn1` (relative stereo) [Compound 31, trans-N-(-4-(2-chlorophenyl)-1-methylpyrrolidin-3-yl)-3-(2-methylpyridin-4-yl)-1H-indazole-5-carboxamide] it was 5.00 to 7.28.
In the case of `Cc1cc(-c2n[nH]c3ncc(C(=O)N[C@@H]4C[C@H]4c4ccccc4)cc23)ccn1` (relative stereo) [Compound 36, trans-3-(2-methylpyridin-4-yl)-N-(2-phenylcyclopropyl)-1H-pyrazolo[3,4-b]pyridine-5-carboxamide] it was 5.00 to 7.28.
For `Cc1cc(-c2n[nH]c3ncc(C(=O)N[C@@H]4CN(C)C[C@H]4c4ccccc4)cc23)ccn1` (relative stereo) [Compound 38, Trans-N-(1-methyl-4-phenylpyrrolidin-3-yl)-3-(2-methylpyridin-4-yl)-1H-pyrazolo[3,4-b]pyridine-5-carboxamide], the negative-log IC50 (pIC50) was 5.00 to 7.28.
In the case of `Cc1cc(-c2n[nH]c3ncc(C(=O)N[C@@H]4C[C@H]4c4ccccc4Cl)cc23)ccn1` (relative stereo) [Compound 40, trans-N-(2-(2-chlorophenyl)cyclo-propyl)-3-(2-methylpyridin-4-yl)-1H-pyrazolo[3,4-b]pyridine-5-carboxamide], the pIC50 is 5.00 to 7.28.
In the case of `Cc1cc(-c2n[nH]c3ncc(C(=O)N[C@@H]4CN(C)C[C@H]4c4ccccc4C(F)(F)F)cc23)ccn1` (single isomer, unassigned) [Compound 14] it was 5.00 to 7.28; in that of `Cc1cc(-c2n[nH]c3ncc(C(=O)N[C@H]4CN(C)C[C@@H]4c4ccccc4C(F)(F)F)cc23)ccn1` (single isomer, unassigned) [Compound 15], 5.00 to 7.28.
In the case of `CN1C[C@H](NC(=O)c2cnc3[nH]nc(-c4ccnc(C(F)(F)F)c4)c3c2)[C@@H](c2ccccc2C(F)(F)F)C1` (stereo in doubt) [Compound 18, N-(-1-methyl-4-(2-(trifluoromethyl)phenyl)pyrrolidin-3-yl)-3-(2-(trifluoromethyl)pyridin-4-yl)-1H-pyrazolo[3,4-b]pyridine-5-carboxamide] it was 5.00 to 7.28; in that of `Cc1cc(-c2n[nH]c3ncc(C(=O)N[C@H]4CNC[C@@H]4c4ccccc4C(F)(F)F)cc23)ccn1` (stereo in doubt) [Compound 19, 3-(2-methylpyridin-4-yl)-N-(-4-(2-(trifluoromethyl)phenyl)pyrrolidin-3-yl)-1H-pyrazolo[3,4-b]pyridine-5-carboxamide], 5.00 to 7.28.
In the case of `Cc1cc(-c2n[nH]c3ncc(C(=O)N[C@H]4CN(S(C)(=O)=O)C[C@@H]4c4ccccc4C(F)(F)F)cc23)ccn1` (stereo in doubt) [Compound 20, 3-(2-methylpyridin-4-yl)-N-(-1-(methylsulfonyl)-4-(2-(trifluoromethyl)phenyl)pyrrolidin-3-yl)-1H-pyrazolo[3,4-b]pyridine-5-carboxamide] it was 5.00 to 7.28; in that of `Cc1cc(-c2n[nH]c3ncc(C(=O)N[C@H](CO)c4cccc(Cl)c4)cc23)ccn1` [Compound 1, (S)-N-(1-(3-chlorophenyl)-2-hydroxyethyl)-3-(2-methylpyridin-4-yl)-1H-pyrazolo[3,4-b]pyridine-5-carboxamide], 5.00 to 7.28.
Turning to `Cc1cc(-c2n[nH]c3nc(NC(=O)N[C@H](C)c4ccccc4)ccc23)ccn1` [Compound 2, (R)-1-(3-(2-methylpyridin-4-yl)-1H-pyrazolo[3,4-b]pyridin-6-yl)-3-(1-phenylethyl)urea], the pIC50 is 5.00 to 7.28.
For the molecule `Cc1cc(-c2n[nH]c3ncc(NC(=O)N[C@@H](C)c4ccccc4)cc23)ccn1` [Compound 4, (S)-1-(3-(2-methylpyridin-4-yl)-1H-pyrazolo[3,4-b]pyridin-5-yl)-3-(1-phenylethyl)urea], the pIC50 is 5.00 to 7.28.
In the case of `Cc1cc(-c2n[nH]c3ncc(C(=O)N[C@@H]4CN(C(C)C)C[C@H]4c4ccccc4C(F)(F)F)cc23)ccn1` [Compound 21, N-((3S,4R)-1-isopropyl-4-(2-(trifluoromethyl)phenyl)pyrrolidin-3-yl)-3-(2-methylpyridin-4-yl)-1H-pyrazolo[3,4-b]pyridine-5-carboxamide] it was 5.00 to 7.28; in that of `COCCN1C[C@@H](NC(=O)c2cnc3[nH]nc(-c4ccnc(C)c4)c3c2)[C@H](c2ccccc2C(F)(F)F)C1` [Compound 22, N-((3S,4R)-1-(2-methoxyethyl)-4-(2-(trifluoromethyl)phenyl)pyrrolidin-3-yl)-3-(2-methylpyridin-4-yl)-1H-pyrazolo[3,4-b]pyridine-5-carboxamide], 5.00 to 7.28.

By pIC50 is commonly meant −log10 of the IC50, conventionally taken in molar units.
